Data reported in ChEMBL document CHEMBL1201862, “PubChem BioAssay data set” (2004).
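Results reflect a 48-hour exposure of cells in 96-well plates to compound at five concentrations. Here, GI50 denotes the concentration required for 50% inhibition of growth.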 The source made the active and inactive calls. No stated cut-off is given here; in the data, active = GI50 up to about 1.1 µM and inactive = higher.

Tests used:
Experiment in all cases: inhibition of tumour cell growth, NCI panel, 48 h
CAKI-1 = system: CAKI-1
HCT-116 = system: HCT-116
IGROV-1 = system: IGROV-1
NCI-H522 = system: NCI-H522
OVCAR-8 = system: OVCAR-8
RPMI-8226 = system: RPMI-8226
RXF 393 = system: RXF 393
SF-539 = system: SF-539
SK-MEL-5 = system: SK-MEL-5
SN12C = system: SN12C
SNB-19 = system: SNB-19
SR = system: SR
UACC-257 = system: UACC-257
UACC-62 = system: UACC-62
UO-31 = system: UO-31
NCI-H460 = system: NCI-H460

| SMILES | GI50 (CAKI-1) | GI50 (HCT-116) | GI50 (IGROV-1) | GI50 (NCI-H522) | GI50 (OVCAR-8) | GI50 (RPMI-8226) | GI50 (RXF 393) | GI50 (SF-539) | GI50 (SK-MEL-5) | GI50 (SN12C) | GI50 (SNB-19) | GI50 (SR) | GI50 (UACC-257) | GI50 (UACC-62) | GI50 (UO-31) | GI50 (NCI-H460) |
| --- | --- | --- | --- | --- | --- | --- | --- | --- | --- | --- | --- | --- | --- | --- | --- | --- |
| CNS(=O)(=O)NN(C)S(=O)(=O)c1ccc(Br)cc1 | > 100 µM (inactive) | > 100 µM (inactive) | > 100 µM (inactive) | > 100 µM (inactive) | > 100 µM (inactive) | > 100 µM (inactive) | > 100 µM (inactive) | > 100 µM (inactive) | > 100 µM (inactive) | > 100 µM (inactive) | > 100 µM (inactive) | > 100 µM (inactive) | > 100 µM (inactive) | > 100 µM (inactive) | > 100 µM (inactive) | – |
| COC(=O)c1c(-c2ccccc2)sc(-c2cccc3ccccc23)c1C(=O)OC | > 100 µM (inactive) | > 100 µM (inactive) | > 100 µM (inactive) | > 100 µM (inactive) | > 100 µM (inactive) | > 100 µM (inactive) | > 100 µM (inactive) | > 100 µM (inactive) | > 100 µM (inactive) | > 100 µM (inactive) | > 100 µM (inactive) | – | > 100 µM (inactive) | > 100 µM (inactive) | 58.2 µM (inactive) | > 100 µM (inactive) |
| Cc1c(/C=N/NC(=O)c2cc(Br)cc(Br)c2O)c(=O)n(-c2ccccc2)n1C | 25.2 µM (inactive) | 56.4 µM (inactive) | 1.22 µM (inactive) | 33 µM (inactive) | 27.5 µM (inactive) | 85.7 µM (inactive) | – | 47 µM (inactive) | 51.6 µM (inactive) | 69.7 µM (inactive) | > 100 µM (inactive) | – | 35.3 µM (inactive) | 19.6 µM (inactive) | 70.5 µM (inactive) | 39.2 µM (inactive) |
| COC1=CC(=O)C2C(C1=O)[C@@H]1c3ccccc3OC(C)(C)[C@H]21 (stereo partly specified) | 16.4 µM (inactive) | 16.2 µM (inactive) | > 10 µM (inactive) | 13.9 µM (inactive) | 21.7 µM (inactive) | 26.6 µM (inactive) | 14.1 µM (inactive) | 23.5 µM (inactive) | 27.4 µM (inactive) | – | 7.73 µM (inactive) | – | 29.2 µM (inactive) | > 10 µM (inactive) | 15.2 µM (inactive) | 60.5 µM (inactive) |
| NC(CCc1ncc(-c2ccccc2)s1)C(=O)O (stereo unspecified) | > 100 µM (inactive) | > 100 µM (inactive) | > 100 µM (inactive) | > 100 µM (inactive) | > 100 µM (inactive) | > 100 µM (inactive) | > 100 µM (inactive) | > 100 µM (inactive) | > 100 µM (inactive) | > 100 µM (inactive) | > 100 µM (inactive) | – | > 100 µM (inactive) | > 100 µM (inactive) | 45.3 µM (inactive) | > 100 µM (inactive) |
| CCOC(=O)C1=C(O)C(=O)c2cc(C)ccc2C1=O | > 100 µM (inactive) | 81.7 µM (inactive) | > 100 µM (inactive) | > 100 µM (inactive) | > 100 µM (inactive) | > 100 µM (inactive) | > 100 µM (inactive) | > 100 µM (inactive) | 31 µM (inactive) | > 100 µM (inactive) | 31.6 µM (inactive) | > 100 µM (inactive) | 48 µM (inactive) | 44.1 µM (inactive) | > 100 µM (inactive) | > 100 µM (inactive) |
| Cc1c(C(=O)CSc2nc3cc([N+](=O)[O-])ccc3[nH]2)c(=O)n(-c2ccccc2)n1C | > 100 µM (inactive) | > 100 µM (inactive) | > 100 µM (inactive) | > 100 µM (inactive) | > 100 µM (inactive) | > 100 µM (inactive) | – | > 100 µM (inactive) | > 100 µM (inactive) | > 100 µM (inactive) | > 100 µM (inactive) | > 100 µM (inactive) | > 100 µM (inactive) | – | > 100 µM (inactive) | > 100 µM (inactive) |
| Cc1c(N2CCOCC2)nc2ccc(Cl)cc2c1-c1ccccc1 | 76.4 µM (inactive) | 56.9 µM (inactive) | > 100 µM (inactive) | 30.8 µM (inactive) | > 100 µM (inactive) | 46.9 µM (inactive) | 62.2 µM (inactive) | 61.9 µM (inactive) | 21 µM (inactive) | 47.8 µM (inactive) | > 100 µM (inactive) | 34.4 µM (inactive) | > 100 µM (inactive) | > 100 µM (inactive) | > 100 µM (inactive) | 58.3 µM (inactive) |
| Cc1cc2c(=O)c3ccc(Cl)cc3[nH]c2c(C(N)=O)c1C | – | > 100 µM (inactive) | > 100 µM (inactive) | > 100 µM (inactive) | > 100 µM (inactive) | > 100 µM (inactive) | – | > 100 µM (inactive) | > 100 µM (inactive) | > 100 µM (inactive) | > 100 µM (inactive) | – | > 100 µM (inactive) | > 100 µM (inactive) | > 100 µM (inactive) | > 100 µM (inactive) |
| COC(=O)/C(C#N)=C(\N)C(Cl)(Cl)Cl | 5.4 µM (inactive) | 0.643 µM (active) | – | 1.9 µM (inactive) | 2.15 µM (inactive) | 1.57 µM (inactive) | 1.61 µM (inactive) | – | 1.69 µM (inactive) | 2.87 µM (inactive) | 40.8 µM (inactive) | 0.449 µM (active) | 3.08 µM (inactive) | 1.37 µM (inactive) | 27.1 µM (inactive) | 4.33 µM (inactive) |
| COc1cc(NCC(C#N)C#N)ccc1/N=N/c1ccc([N+](=O)[O-])cc1 | > 100 µM (inactive) | > 100 µM (inactive) | > 100 µM (inactive) | 46.5 µM (inactive) | > 100 µM (inactive) | 49.1 µM (inactive) | > 100 µM (inactive) | > 100 µM (inactive) | > 100 µM (inactive) | > 100 µM (inactive) | 65.5 µM (inactive) | 49.5 µM (inactive) | > 100 µM (inactive) | > 100 µM (inactive) | > 100 µM (inactive) | > 100 µM (inactive) |
| CC1OC(OC2CCCc3c(O)c4c(c(O)c32)C(=O)c2ccccc2C4=O)CC(N)C1O (stereo unspecified) | 1.43 µM (inactive) | 1.72 µM (inactive) | 1.69 µM (inactive) | 1.64 µM (inactive) | 1.42 µM (inactive) | 1.58 µM (inactive) | 1.02 µM (active) | 1.56 µM (inactive) | 1.82 µM (inactive) | 1.68 µM (inactive) | 1.64 µM (inactive) | – | 1.62 µM (inactive) | – | 1.73 µM (inactive) | 1.43 µM (inactive) |
| CCCOP1(=O)C=CC(Cl)=C(C)C1 (stereo unspecified) | 32.4 µM (inactive) | 17.1 µM (inactive) | 97.7 µM (inactive) | 15.9 µM (inactive) | 21.1 µM (inactive) | 22.3 µM (inactive) | 16 µM (inactive) | > 46 µM (inactive) | 45.6 µM (inactive) | 69.5 µM (inactive) | > 70 µM (inactive) | – | 26.9 µM (inactive) | 19.1 µM (inactive) | 81.7 µM (inactive) | 50.7 µM (inactive) |
| CCCN1CN(C(C(=O)N[C@@H]2C(=O)N3C2SC(C)(C)C3C(=O)O)c2ccccc2)CSC1=S (stereo partly specified) | > 100 µM (inactive) | 57.1 µM (inactive) | > 100 µM (inactive) | 23.1 µM (inactive) | > 100 µM (inactive) | 53.6 µM (inactive) | – | > 100 µM (inactive) | > 100 µM (inactive) | > 100 µM (inactive) | > 100 µM (inactive) | – | > 100 µM (inactive) | > 100 µM (inactive) | > 100 µM (inactive) | > 100 µM (inactive) |
| COc1cc2c(cc1OC)C(=O)C(C1=C(SC(=N)N)C(=O)c3cc(OC)c(OC)cc31)C2 (stereo unspecified) | > 100 µM (inactive) | > 100 µM (inactive) | > 100 µM (inactive) | > 100 µM (inactive) | > 100 µM (inactive) | > 100 µM (inactive) | – | > 100 µM (inactive) | > 100 µM (inactive) | > 100 µM (inactive) | > 100 µM (inactive) | > 100 µM (inactive) | > 100 µM (inactive) | > 100 µM (inactive) | > 100 µM (inactive) | > 100 µM (inactive) |
| CCOc1ccc(/C=C/C(=O)c2sc(NNC(C)=O)nc2C)cc1 | > 100 µM (inactive) | – | > 100 µM (inactive) | > 100 µM (inactive) | > 100 µM (inactive) | > 100 µM (inactive) | > 100 µM (inactive) | > 100 µM (inactive) | > 100 µM (inactive) | > 100 µM (inactive) | > 100 µM (inactive) | – | > 100 µM (inactive) | > 100 µM (inactive) | > 100 µM (inactive) | > 100 µM (inactive) |
| COc1nc2nccc-2c2occn12 | > 100 µM (inactive) | > 100 µM (inactive) | > 100 µM (inactive) | > 100 µM (inactive) | > 100 µM (inactive) | > 100 µM (inactive) | > 100 µM (inactive) | > 100 µM (inactive) | > 100 µM (inactive) | > 100 µM (inactive) | > 100 µM (inactive) | – | > 100 µM (inactive) | > 100 µM (inactive) | > 100 µM (inactive) | > 100 µM (inactive) |
| O=C1O[B-](c2ccccc2)(c2ccccc2)[NH2+]C1CS (stereo unspecified) | 35.6 µM (inactive) | 33.7 µM (inactive) | 78 µM (inactive) | 43.3 µM (inactive) | > 100 µM (inactive) | 20.2 µM (inactive) | 23.3 µM (inactive) | 57.7 µM (inactive) | 55 µM (inactive) | 80.4 µM (inactive) | > 100 µM (inactive) | 28.8 µM (inactive) | 66.1 µM (inactive) | 42 µM (inactive) | 52.2 µM (inactive) | 66.1 µM (inactive) |
| CCOC(=O)N[C@@H]1C(CC(=O)OC)O[C@H]2OC(C)(C)O[C@H]21 (stereo partly specified) | > 100 µM (inactive) | – | > 100 µM (inactive) | – | – | > 100 µM (inactive) | > 100 µM (inactive) | > 100 µM (inactive) | > 100 µM (inactive) | > 100 µM (inactive) | – | – | > 100 µM (inactive) | > 100 µM (inactive) | > 100 µM (inactive) | > 100 µM (inactive) |
